For one molecule, melting point results are on record in patent publication US8299123B2, “CCR10 antagonists” (Boehringer Ingelheim International GmbH, priority 2007, dated 2012).

In the case of `CCCCOc1ccc(Cl)cc1C(=O)N[C@H]1C[C@@H]1c1ccc(-c2ccc(C(=O)O)cc2)cc1` [Compound 108, 4′-{(1R,2S)-2-[(2-butoxy-5-chlorobenzoyl)amino]cyclopropyl}-biphenyl-4-carboxylic acid], the melting point lay within 218 to 222 °C.
